# Measurements as given in ChEMBL document CHEMBL4417631, “Oral peptide inhibitors of interleukin-23 receptor and their use to treat inflammatory bowel diseases” (2017).
# *1 amine or outer side, *2 acyl side, *3 side chain or, on linkers, in order; H or OH if unused. Where a SMILES comes first, the peptide text is derived from it. Bridges are numbered along the chain shown (N, C = ends). [ ]: non-standard residue; d: D form. Abu(4-yl) = O=C([C@H](CC[*:3])N[*:1])[*:2]; 2Nal = N[C@@H](Cc1ccc2ccccc2c1)C(=O)O; AEF = NCCOc1ccc(C[C@H](N)C(=O)O)cc1; αMeK = C[C@](N)(CCCCN)C(=O)O
# Columns and labels:
# Interleukin-23 receptor [1] = target: T1, Interleukin-23 receptor (Homo sapiens, UniProt Q5VWK5); experiment: Inhibition of interleukin-23 binding to human interleukin-23 receptor incubated for 2 hrs by competitive binding ELISA
# T1 sequence (Q5VWK5 whole entry): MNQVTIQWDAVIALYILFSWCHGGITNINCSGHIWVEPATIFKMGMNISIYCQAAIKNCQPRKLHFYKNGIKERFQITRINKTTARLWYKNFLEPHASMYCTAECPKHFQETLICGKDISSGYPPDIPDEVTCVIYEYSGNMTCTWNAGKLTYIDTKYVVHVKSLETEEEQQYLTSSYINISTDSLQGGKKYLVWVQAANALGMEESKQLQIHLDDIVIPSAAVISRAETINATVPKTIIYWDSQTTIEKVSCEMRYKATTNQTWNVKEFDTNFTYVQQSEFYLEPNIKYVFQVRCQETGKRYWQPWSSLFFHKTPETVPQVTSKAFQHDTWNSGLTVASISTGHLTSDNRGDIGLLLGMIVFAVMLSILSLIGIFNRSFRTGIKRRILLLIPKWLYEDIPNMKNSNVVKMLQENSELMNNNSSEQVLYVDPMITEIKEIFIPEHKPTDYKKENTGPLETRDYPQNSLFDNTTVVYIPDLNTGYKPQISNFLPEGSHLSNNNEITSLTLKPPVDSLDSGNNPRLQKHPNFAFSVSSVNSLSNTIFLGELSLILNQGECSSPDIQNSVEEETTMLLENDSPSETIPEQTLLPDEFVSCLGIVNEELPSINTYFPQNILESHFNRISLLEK
# Interleukin-23 receptor [2] = target: T1, Interleukin-23 receptor; experiment: Inhibition of interleukin-23 receptor in human DB cells assessed as reduction in IL-23-stimulated STAT3 phosphorylation incubated for 30 mins by HTRF assay; type: cell-based
# [3] = Inhibition of interleukin-23 binding to rat interleukin-23 receptor incubated for 2 hrs by competitive binding ELISA
# [4] = Half life in simulated intestinal fluid at 20 uM by LC-MS/MS analysis; type: ADME
Structure (SMILES),IC50 (Interleukin-23 receptor [1]),IC50 (Interleukin-23 receptor [2]),IC50 [3],half-life at 20 µM [4]
CC(=O)N[C@H]1CCSC[C@@H](C(=O)N[C@@H](Cc2ccc(O)cc2)C(=O)N[C@@H](Cc2c[nH]c3ccccc23)C(=O)N[C@@](C)(CC(C)C)C(=O)N[C@@H](CCC(=O)O)C(=O)N[C@@H](CC(N)=O)C(=O)NCC(N)=O)NC(=O)[C@H](CCC(N)=O)NC(=O)[C@H](Cc2c[nH]c3ccccc23)NC(=O)[C@H]([C@@H](C)O)NC(=O)[C@H](CCC(N)=O)NC1=O,0.01 to 0.025 µM,< 0.01 µM,0.025 to 0.1 µM,< 1 h
CC(=O)N[C@H](C(=O)N[C@@H](CCC(N)=O)C(=O)N[C@H](C(=O)N[C@@H](Cc1c[nH]c2ccccc12)C(=O)N[C@@H](CCC(N)=O)C(=O)N[C@H](C(=O)N[C@@H](Cc1ccc(O)cc1)C(=O)N[C@@H](Cc1c[nH]c2ccccc12)C(=O)N[C@@](C)(CCCN)C(=O)N[C@@H](CCC(=O)O)C(=O)N[C@@H](CC(N)=O)C(=O)NCC(N)=O)C(C)(C)S)[C@@H](C)O)C(C)(C)S,0.1 to 1 µM,0.025 to 0.1 µM,0.1 to 1 µM,3 to 6 h
COc1ccc(C[C@H](NC(=O)[C@@H](NC(=O)[C@H](CCC(N)=O)NC(=O)[C@H](Cc2c[nH]c3ccccc23)NC(=O)[C@@H](NC(=O)[C@H](CCC(N)=O)NC(=O)[C@@H](NC(C)=O)C(C)(C)S)[C@@H](C)O)C(C)(C)S)C(=O)N[C@@H](Cc2c[nH]c3ccccc23)C(=O)N[C@@](C)(CCCCN)C(=O)N[C@@H](CCCCNC(C)=O)C(=O)N[C@@H](CC(N)=O)C(=O)NCC(N)=O)cc1,0.025 to 0.1 µM,0.01 to 0.025 µM,0.025 to 0.1 µM,> 6 h
COc1ccc(C[C@H](NC(=O)[C@@H](NC(=O)[C@H](CCC(N)=O)NC(=O)[C@H](Cc2c[nH]c3ccccc23)NC(=O)[C@@H](NC(=O)[C@H](CCC(N)=O)NC(=O)[C@@H](NCN2C(=O)COCC2=O)C(C)(C)S)[C@@H](C)O)C(C)(C)S)C(=O)N[C@@H](Cc2ccc3ccccc3c2)C(=O)N[C@@](C)(CCCCN)C(=O)N[C@@H](CCCCNC(C)=O)C(=O)N[C@@H](CC(N)=O)C(=O)NCC(N)=O)cc1,0.025 to 0.1 µM,0.01 to 0.025 µM,0.025 to 0.1 µM,–
CC(=O)NCCCC[C@H](NC(=O)[C@](C)(CCCCN)NC(=O)[C@H](Cc1ccc2ccccc2c1)NC(=O)[C@H](Cc1ccc(OCCN)cc1)NC(=O)[C@@H](NC(=O)[C@H](CCC(N)=O)NC(=O)[C@H](Cc1c[nH]c2ccccc12)NC(=O)[C@@H](NC(=O)[C@H](CCC(N)=O)NC(=O)[C@@H](NC(C)=O)C(C)(C)S)[C@@H](C)O)C(C)(C)S)C(=O)N[C@@H](CC(N)=O)C(=O)NCC(N)=O,< 0.01 µM,< 0.01 µM,0.025 to 0.1 µM,–
CC(=O)NCCCC[C@](C)(NC(=O)[C@H](Cc1ccc2ccccc2c1)NC(=O)[C@H](Cc1ccc(OCCNC(C)=O)cc1)NC(=O)[C@@H]1CSCC[C@H](NC(C)=O)C(=O)N[C@@H](CCC(N)=O)C(=O)N[C@@H]([C@@H](C)O)C(=O)N[C@@H](Cc2c[nH]c3ccccc23)C(=O)N[C@@H](CCC(N)=O)C(=O)N1)C(=O)N[C@@H](CCC(=O)O)C(=O)N[C@@H](CC(N)=O)C(=O)N[C@@H](CCC(N)=O)C(N)=O (Ac-[Abu(4-yl)]QTWQC[AEF](Ac)[2Nal][αMeK](Ac)ENQ-NH2; thioether 1-6),< 0.01 µM,< 0.01 µM,< 0.01 µM,–
COc1ccc(C[C@H](NC(=O)[C@@H](NC(=O)[C@H](CCC(N)=O)NC(=O)[C@H](Cc2c[nH]c3ccccc23)NC(=O)[C@@H](NC(=O)[C@H](CCC(N)=O)NC(=O)[C@@H](NC(=O)CC(C)C)C(C)(C)S)[C@@H](C)O)C(C)(C)S)C(=O)N[C@@H](Cc2ccc3ccccc3c2)C(=O)N[C@@](C)(CCCCN)C(=O)N[C@@H](CCCCNC(C)=O)C(=O)N[C@@H](CC(N)=O)C(=O)NCC(N)=O)cc1,0.025 to 0.1 µM,0.01 to 0.025 µM,0.025 to 0.1 µM,–
COc1ccc(C[C@H](NC(=O)[C@@H](NC(=O)[C@H](CCC(N)=O)NC(=O)[C@H](Cc2c[nH]c3ccccc23)NC(=O)[C@@H](NC(=O)[C@H](CCC(N)=O)NC(=O)[C@@H](NC(=O)CCCC(=O)O)C(C)(C)S)[C@@H](C)O)C(C)(C)S)C(=O)N[C@@H](Cc2ccc3ccccc3c2)C(=O)N[C@@](C)(CCCCN)C(=O)N[C@@H](CCCCNC(C)=O)C(=O)N[C@@H](CC(N)=O)C(=O)NCC(N)=O)cc1,0.025 to 0.1 µM,0.01 to 0.025 µM,0.025 to 0.1 µM,–
CC(=O)N[C@@H](CS)C(=O)N[C@@H](CCC(N)=O)C(=O)N[C@H](C(=O)N[C@@H](Cc1c[nH]c2ccccc12)C(=O)N[C@@H](CCC(N)=O)C(=O)N[C@H](C(=O)N[C@@H](Cc1ccc(O)cc1)C(=O)N[C@@H](Cc1c[nH]c2ccccc12)C(=O)N[C@@](C)(CC(C)C)C(=O)N[C@@H](CCC(=O)O)C(=O)N[C@@H](CC(N)=O)C(=O)NCC(N)=O)C(C)(C)S)[C@@H](C)O,0.1 to 1 µM,–,0.1 to 1 µM,< 1 h
CC(=O)NCCCC[C@H](NC(=O)[C@H](CCC(C)C)NC(=O)[C@H](Cc1c[nH]c2ccccc12)NC(=O)[C@H](Cc1ccc(O)cc1)NC(=O)[C@H](CS)NC(=O)[C@H](CCC(N)=O)NC(=O)[C@H](Cc1c[nH]c2ccccc12)NC(=O)[C@@H](NC(=O)[C@H](CCC(N)=O)NC(=O)[C@H](CS)NC(C)=O)[C@@H](C)O)C(=O)N[C@@H](CC(N)=O)C(=O)NCC(N)=O,–,0.003 µM,0.032 µM,–
CC(=O)N[C@H](C(=O)N[C@@H](CN)C(=O)N[C@H](C(=O)N[C@@H](Cc1c[nH]c2ccccc12)C(=O)N[C@@H](CCC(N)=O)C(=O)N[C@H](C(=O)N[C@@H](Cc1ccc(OCCN)cc1)C(=O)N[C@@H](Cc1ccc2ccccc2c1)C(=O)N[C@@](C)(CCCCN)C(=O)N[C@@H](CCC(=O)O)C(=O)N[C@@H](CC(N)=O)C(=O)NCC(N)=O)C(C)(C)S)[C@@H](C)O)C(C)(C)S,< 0.01 µM,< 0.01 µM,0.025 to 0.1 µM,–

# Next, values leading:
IC50 (Interleukin-23 receptor [1]),IC50 (Interleukin-23 receptor [2]),IC50 [3],half-life at 20 µM [4],Structure (SMILES)
0.025 to 0.1 µM,< 0.01 µM,0.1 to 1 µM,–,COc1ccc(C[C@H](NC(=O)[C@@H](NC(=O)[C@H](CCC(N)=O)NC(=O)[C@H](Cc2c[nH]c3ccccc23)NC(=O)[C@@H](NC(=O)[C@H](CCC(N)=O)NC(=O)[C@@H](NC(=O)Cc2ccc(F)cc2)C(C)(C)S)[C@@H](C)O)C(C)(C)S)C(=O)N[C@@H](Cc2ccc3ccccc3c2)C(=O)N[C@@](C)(CCCCN)C(=O)N[C@@H](CCCCNC(C)=O)C(=O)N[C@@H](CC(N)=O)C(=O)NCC(N)=O)cc1
0.1 to 1 µM,0.1 to 1 µM,1 to 10 µM,–,CC(=O)N[C@H](C(=O)N[C@@H](C)C(=O)N[C@@H](CC(=O)O)C(=O)N[C@@H](Cc1c[nH]c2ccccc12)C(=O)N[C@H](C(=O)N[C@@H](CS)C(=O)N[C@@H](Cc1ccc(O)cc1)C(=O)N[C@@H](Cc1c[nH]c2ccccc12)C(=O)N[C@@H](Cc1cnc[nH]1)C(=O)N[C@H](C(=O)N[C@@H](Cc1ccccc1)C(=O)NCC(=O)NCCOCC(=O)N[C@H](CCCCN)C(N)=O)[C@@H](C)O)C(C)C)C(C)(C)S
0.1 to 1 µM,0.025 to 0.1 µM,0.1 to 1 µM,–,CC(=O)N[C@H](C(=O)N[C@@H](CCCNC(=N)N)C(=O)N[C@H](C(=O)N[C@@H](Cc1c[nH]c2ccccc12)C(=O)N[C@@H](CCC(N)=O)C(=O)N[C@H](C(=O)N[C@@H](Cc1ccc(O)cc1)C(=O)N[C@@H](Cc1c[nH]c2ccccc12)C(=O)N[C@@H](CCCNC(=N)N)C(=O)N[C@@H](CCCCN)C(=O)N[C@@H](Cc1ccccc1)C(=O)NCC(=O)NCCOCC(=O)N[C@H](CCCCN)C(N)=O)C(C)(C)S)[C@@H](C)O)C(C)(C)S
> 30 µM,0.1 to 1 µM,1 to 10 µM,–,CC(=O)N[C@@H](CS)C(=O)N[C@@H](C)C(=O)N[C@@H](CC(=O)O)C(=O)N[C@@H](Cc1c[nH]c2ccccc12)C(=O)N[C@H](C(=O)N[C@H](C(=O)N[C@@H](Cc1ccc(O)cc1)C(=O)N[C@@H](Cc1c[nH]c2ccccc12)C(=O)N[C@@H](Cc1cnc[nH]1)C(=O)N[C@H](C(=O)N[C@@H](Cc1ccccc1)C(=O)NCC(=O)NCCOCC(=O)N[C@H](CCCCN)C(N)=O)[C@@H](C)O)C(C)(C)S)C(C)C
< 0.01 µM,< 0.01 µM,< 0.01 µM,–,CC(=O)NCCCC[C@](C)(NC(=O)[C@H](Cc1ccc2ccccc2c1)NC(=O)[C@H](Cc1ccc(OCCNC(C)=O)cc1)NC(=O)[C@@H]1CSCC[C@H](NC(C)=O)C(=O)N[C@@H](CCC(N)=O)C(=O)N[C@@H]([C@@H](C)O)C(=O)N[C@@H](Cc2c[nH]c3ccccc23)C(=O)N[C@@H](CCC(N)=O)C(=O)N1)C(=O)N[C@@H](CCC(=O)O)C(=O)N[C@@H](CC(N)=O)C(=O)N[C@@H](CC(N)=O)C(N)=O
0.1 to 1 µM,0.1 to 1 µM,0.1 to 1 µM,–,CC(=O)N[C@H](C(=O)N[C@@H](CCCNC(=N)N)C(=O)N[C@H](C(=O)N[C@@H](Cc1c[nH]c2ccccc12)C(=O)N[C@@H](CCC(N)=O)C(=O)N[C@@H](CS)C(=O)N[C@@H](Cc1ccc(O)cc1)C(=O)N[C@@H](Cc1c[nH]c2ccccc12)C(=O)N[C@@H](CCCNC(=N)N)C(=O)N[C@@H](CCCCN)C(=O)N[C@@H](Cc1ccccc1)C(=O)NCC(=O)NCCOCC(=O)N[C@H](CCCCN)C(N)=O)[C@@H](C)O)C(C)(C)S
